Numbers after ± are expanded uncertainties.
Tests used:
[1] = excess molar enthalpy (molar enthalpy of mixing); xn = mol fraction of the nth substance listed; details: 308.15 K, 101 kPa, Liquid, 2-drop calorimeter (CSC 4600_
[2] = xn = mol fraction of the nth substance listed; details: 101 kPa, Liquid; for mass density: Vibrating tube method

Cc1ccccn1 [2-methylpyridine] + C1CCOCC1
[1]
Details | excess molar enthalpy [kcal/mol]
x2 = 0.0511 | 0.00394 ± 0.000287
x2 = 0.1102 | 0.00915 ± 0.000335
x2 = 0.1773 | 0.016 ± 0.000406
x2 = 0.2121 | 0.0196 ± 0.00043
x2 = 0.2683 | 0.0253 ± 0.000502
x2 = 0.3182 | 0.03 ± 0.00055
x2 = 0.3905 | 0.0356 ± 0.000598
x2 = 0.4304 | 0.0391 ± 0.000621
x2 = 0.4822 | 0.0413 ± 0.000645
x2 = 0.5216 | 0.0437 ± 0.000669
x2 = 0.5755 | 0.0442 ± 0.000693
x2 = 0.6213 | 0.0442 ± 0.000693
x2 = 0.6786 | 0.0428 ± 0.000669
x2 = 0.7288 | 0.0409 ± 0.000645
x2 = 0.7754 | 0.0373 ± 0.000621
x2 = 0.8216 | 0.0323 ± 0.000574
x2 = 0.8852 | 0.0232 ± 0.000478
x2 = 0.9217 | 0.0168 ± 0.000406

[2]
Details | mass density, 298.15 K [kg/m3] | mass density, 303.15 K [kg/m3] | mass density, 308.15 K [kg/m3] | speed of sound, 298.15 K [m/s] | speed of sound, 303.15 K [m/s] | speed of sound, 308.15 K [m/s]
x2 = 0 | 939.802 ± 0.99 | 935.117 ± 0.98 | 930.414 ± 0.98 | 1380.1 ± 2 | 1361 ± 2 | 1339.9 ± 2
x2 = 0.0367 | 937.731 ± 0.99 | 933.031 ± 0.98 | 928.307 ± 0.97 | 1376.6 ± 2 | 1357.6 ± 2 | 1336.4 ± 2
x2 = 0.0731 | 935.665 ± 0.98 | 930.947 ± 0.98 | 926.208 ± 0.97 | 1373 ± 2 | 1354.1 ± 2 | 1332.8 ± 2
x2 = 0.1274 | 932.552 ± 0.98 | 927.811 ± 0.97 | 923.053 ± 0.97 | 1367.7 ± 2 | 1348.5 ± 2 | 1327.2 ± 2
x2 = 0.1751 | 929.795 ± 0.98 | 925.036 ± 0.97 | 920.257 ± 0.96 | 1363 ± 2 | 1343.5 ± 2 | 1322 ± 2
x2 = 0.2373 | 926.162 ± 0.97 | 921.378 ± 0.96 | 916.581 ± 0.96 | 1356.6 ± 2 | 1336.7 ± 2 | 1315.2 ± 2
x2 = 0.2752 | 923.926 ± 0.97 | 919.13 ± 0.96 | 914.323 ± 0.95 | 1352.6 ± 2 | 1332.5 ± 2 | 1310.9 ± 2
x2 = 0.3262 | 920.901 ± 0.96 | 916.081 ± 0.96 | 911.259 ± 0.95 | 1347.2 ± 2 | 1326.7 ± 2 | 1305.1 ± 2
x2 = 0.3817 | 917.578 ± 0.96 | 912.735 ± 0.95 | 907.895 ± 0.94 | 1341.2 ± 2 | 1320.4 ± 2 | 1298.7 ± 2
x2 = 0.4248 | 914.974 ± 0.95 | 910.121 ± 0.95 | 905.265 ± 0.94 | 1336.5 ± 2 | 1315.4 ± 2 | 1293.7 ± 2
x2 = 0.4916 | 910.915 ± 0.95 | 906.032 ± 0.94 | 901.153 ± 0.94 | 1328.9 ± 2 | 1307.5 ± 2 | 1285.8 ± 2
x2 = 0.5525 | 907.178 ± 0.94 | 902.268 ± 0.94 | 897.366 ± 0.93 | 1322 ± 2 | 1300.4 ± 2 | 1278.5 ± 2
x2 = 0.6147 | 903.336 ± 0.94 | 898.401 ± 0.93 | 893.468 ± 0.93 | 1314.9 ± 2 | 1293 ± 2 | 1271.1 ± 2
x2 = 0.6674 | 900.064 ± 0.93 | 895.101 ± 0.93 | 890.14 ± 0.92 | 1308.7 ± 2 | 1286.8 ± 2 | 1264.8 ± 2
x2 = 0.7018 | 897.916 ± 0.93 | 892.937 ± 0.93 | 887.961 ± 0.92 | 1304.7 ± 2 | 1282.7 ± 2 | 1260.7 ± 2
x2 = 0.7736 | 893.419 ± 0.93 | 888.402 ± 0.92 | 883.383 ± 0.91 | 1296.3 ± 2 | 1274.2 ± 2 | 1252 ± 2
x2 = 0.8219 | 890.381 ± 0.92 | 885.337 ± 0.91 | 880.292 ± 0.91 | 1290.6 ± 2 | 1268.4 ± 2 | 1246.2 ± 2
x2 = 0.8673 | 887.518 ± 0.92 | 882.452 ± 0.91 | 877.377 ± 0.9 | 1285.3 ± 2 | 1262.9 ± 2 | 1240.7 ± 2
x2 = 0.9428 | 882.751 ± 0.91 | 877.641 ± 0.9 | 872.516 ± 0.9 | 1276.5 ± 2 | 1253.8 ± 2 | 1231.5 ± 2

Cc1cccnc1 [3-methylpyridine] + C1CCOCC1
[1]
Details | excess molar enthalpy [kcal/mol]
x2 = 0.0532 | 0.0059 ± 0.000311
x2 = 0.1118 | 0.0118 ± 0.000359
x2 = 0.1802 | 0.0181 ± 0.00043
x2 = 0.2238 | 0.0215 ± 0.000454
x2 = 0.2732 | 0.0248 ± 0.000478
x2 = 0.3311 | 0.0277 ± 0.000526
x2 = 0.3913 | 0.0298 ± 0.00055
x2 = 0.4461 | 0.0302 ± 0.00055
x2 = 0.4803 | 0.0304 ± 0.00055
x2 = 0.5365 | 0.0299 ± 0.00055
x2 = 0.5868 | 0.0293 ± 0.000526
x2 = 0.6344 | 0.0276 ± 0.000526
x2 = 0.6802 | 0.0249 ± 0.000502
x2 = 0.7355 | 0.0221 ± 0.000454
x2 = 0.7832 | 0.0184 ± 0.00043
x2 = 0.8326 | 0.0149 ± 0.000382
x2 = 0.8914 | 0.00963 ± 0.000335
x2 = 0.9336 | 0.00607 ± 0.000311

[2]
Details | mass density, 298.15 K [kg/m3] | mass density, 303.15 K [kg/m3] | mass density, 308.15 K [kg/m3] | speed of sound, 298.15 K [m/s] | speed of sound, 303.15 K [m/s] | speed of sound, 308.15 K [m/s]
x2 = 0 | 952.002 ± 1 | 947.449 ± 1 | 942.831 ± 0.99 | 1424 ± 2 | 1404 ± 2 | 1384 ± 2
x2 = 0.0562 | 948.099 ± 1 | 943.521 ± 1 | 938.854 ± 0.99 | 1415.9 ± 2 | 1395.6 ± 2 | 1375.6 ± 2
x2 = 0.0848 | 946.113 ± 1 | 941.519 ± 0.99 | 936.827 ± 0.99 | 1411.8 ± 2 | 1391.4 ± 2 | 1371.4 ± 2
x2 = 0.1357 | 942.576 ± 0.99 | 937.954 ± 0.99 | 933.219 ± 0.98 | 1404.5 ± 2 | 1383.9 ± 2 | 1363.8 ± 2
x2 = 0.1826 | 939.306 ± 0.99 | 934.651 ± 0.98 | 929.891 ± 0.98 | 1397.8 ± 2 | 1377.1 ± 2 | 1356.8 ± 2
x2 = 0.2461 | 934.857 ± 0.98 | 930.166 ± 0.98 | 925.361 ± 0.97 | 1388.8 ± 2 | 1367.8 ± 2 | 1347.2 ± 2
x2 = 0.2833 | 932.236 ± 0.98 | 927.522 ± 0.97 | 922.691 ± 0.97 | 1383.3 ± 2 | 1362.3 ± 2 | 1341.5 ± 2
x2 = 0.3345 | 928.61 ± 0.97 | 923.861 ± 0.97 | 919.004 ± 0.96 | 1375.8 ± 2 | 1354.5 ± 2 | 1333.6 ± 2
x2 = 0.3813 | 925.271 ± 0.97 | 920.499 ± 0.96 | 915.608 ± 0.96 | 1368.6 ± 2 | 1347.3 ± 2 | 1326.2 ± 2
x2 = 0.4262 | 922.049 ± 0.96 | 917.247 ± 0.96 | 912.336 ± 0.95 | 1361.8 ± 2 | 1340.3 ± 2 | 1319.2 ± 2
x2 = 0.4827 | 917.964 ± 0.96 | 913.129 ± 0.95 | 908.186 ± 0.95 | 1353 ± 2 | 1331.2 ± 2 | 1310.1 ± 2
x2 = 0.5378 | 913.951 ± 0.95 | 909.085 ± 0.95 | 904.106 ± 0.94 | 1344.3 ± 2 | 1322.4 ± 2 | 1301.2 ± 2
x2 = 0.5924 | 909.933 ± 0.95 | 905.038 ± 0.94 | 900.027 ± 0.94 | 1335.5 ± 2 | 1313.3 ± 2 | 1292.3 ± 2
x2 = 0.6382 | 906.545 ± 0.94 | 901.626 ± 0.94 | 896.591 ± 0.93 | 1328 ± 2 | 1305.7 ± 2 | 1284.7 ± 2
x2 = 0.6982 | 902.068 ± 0.94 | 897.114 ± 0.93 | 892.051 ± 0.92 | 1318.1 ± 2 | 1295.6 ± 2 | 1274.7 ± 2
x2 = 0.7568 | 897.664 ± 0.93 | 892.682 ± 0.92 | 887.584 ± 0.92 | 1308.6 ± 2 | 1285.8 ± 2 | 1264.9 ± 2
x2 = 0.8138 | 893.349 ± 0.93 | 888.335 ± 0.92 | 883.218 ± 0.91 | 1299.2 ± 2 | 1276.4 ± 2 | 1255.4 ± 2
x2 = 0.8825 | 888.124 ± 0.92 | 883.068 ± 0.91 | 877.926 ± 0.9 | 1288.2 ± 2 | 1265.1 ± 2 | 1243.9 ± 2
x2 = 0.9321 | 884.334 ± 0.91 | 879.246 ± 0.91 | 874.092 ± 0.9 | 1280.3 ± 2 | 1257.2 ± 2 | 1235.7 ± 2

From the NIST ThermoML archive (doi:10.1016/j.tca.2011.02.002)
